Laboratory results reported in the NIST ThermoML archive (doi:10.1016/j.tca.2018.05.007).
“And” between values parts separate entries of the source, which are not always exact repeats. Equal values may be shown once.

Settings: Liquid, Rate of evaporation

OCCN(CCO)CCO [triethanolamine]
Settings | vapor or sublimation pressure
365 K | 0.000835 kPa
375 K | 0.002129 kPa and 0.002041 kPa
385 K | 0.005005 kPa and 0.004526 kPa
395 K | 0.01093 kPa and 0.009521 kPa
400 K | 0.01404 kPa
405 K | 0.02229 kPa and 0.01908 kPa
410 K | 0.02726 kPa
415 K | 0.04274 kPa and 0.03658 kPa and 0.03733 kPa
420 K | 0.05078 kPa
425 K | 0.07739 kPa and 0.06729 kPa and 0.06993 kPa
430 K | 0.09108 kPa and 0.0987 kPa and 0.0881 kPa
435 K | 0.133 kPa and 0.1191 kPa and 0.1259 kPa
440 K | 0.1577 kPa and 0.1715 kPa and 0.1578 kPa
445 K | 0.2176 kPa and 0.2036 kPa and 0.2184 kPa
450 K | 0.2644 kPa and 0.2908 kPa and 0.2755 kPa
455 K | 0.3407 kPa and 0.3368 kPa and 0.3662 kPa
460 K | 0.4694 kPa [middle of 4 runs]
465 K | 0.5116 kPa and 0.5424 kPa and 0.5946 kPa
470 K | 0.7812 kPa and 0.7818 kPa
475 K | 0.9374 kPa
480 K | 1.165 kPa and 1.242 kPa and 1.275 kPa
490 K | 1.936 kPa and 2.038 kPa
500 K | 3.196 kPa
510 K | 4.926 kPa
515 K | 6.077 kPa
